Source: the NIST ThermoML archive (doi:10.1016/j.jct.2012.11.020)

Assay: xn = mol fraction of the nth substance listed
Conditions: 100 kPa, Liquid; for electrical conductivity: Alternating current cell with electrodes; for viscosity: Cone and plate viscometry; for mass density: Vibrating tube method

C1CC[NH2+]C1.O=[N+]([O-])[O-] [pyrrolidinium nitrate] + CC1COC(=O)O1
Conditions	electrical conductivity [S/m]	mass density [kg/m3]	viscosity [mPa·s]
258.15 K, x1 = 0.3	0.387	–	–
260.15 K, x1 = 0.1	0.142	–	–
260.15 K, x1 = 0.22	0.315	–	–
262.15 K, x1 = 0.5	0.673	–	–
263.15 K, x1 = 0.3	0.481	–	–
266.45 K, x1 = 0.22	0.376	–	–
268.15 K, x1 = 0.1	0.207	–	–
268.15 K, x1 = 0.3	0.585	–	–
268.15 K, x1 = 0.5	0.91	–	–
270.15 K, x1 = 0.8	0.0803	–	–
273.15 K, x1 = 0.1	0.243	–	–
273.15 K, x1 = 0.22	0.446	–	–
273.15 K, x1 = 0.3	0.694	–	–
273.15 K, x1 = 0.5	1.1	–	–
273.15 K, x1 = 0.8	0.118	–	–
278.15 K, x1 = 0.1	0.281	–	–
278.15 K, x1 = 0.22	0.505	–	–
278.15 K, x1 = 0.3	0.807	–	–
278.15 K, x1 = 0.5	1.19	–	–
278.15 K, x1 = 0.8	0.206	–	–
283.15 K, x1 = 0.1	0.322	1221	5.97
283.15 K, x1 = 0.22	0.562	1225.2	7.55
283.15 K, x1 = 0.3	0.92	1227.5	9.98
283.15 K, x1 = 0.4	–	1229.8	14.1
283.15 K, x1 = 0.5	1.49	1231.5	18.85
283.15 K, x1 = 0.62	–	1233	23.36
283.15 K, x1 = 0.7	–	1233.3	28.76
283.15 K, x1 = 0.8	0.352	1234	35.56
283.15 K, x1 = 1	–	1235	58.87
284.15 K, x1 = 1	2.93	–	–
288.15 K, x1 = 0.1	0.362	–	–
288.15 K, x1 = 0.22	0.606	–	–
288.15 K, x1 = 0.3	1.04	–	–
288.15 K, x1 = 0.5	1.7	–	–
288.15 K, x1 = 0.8	0.644	–	–
293.15 K, x1 = 0.1	0.405	1211	4.71
293.15 K, x1 = 0.22	0.702	1215.8	5.73
293.15 K, x1 = 0.3	1.17	1218.5	7.37
293.15 K, x1 = 0.4	–	1221.2	10.17
293.15 K, x1 = 0.5	1.91	1223.1	13.06
293.15 K, x1 = 0.62	–	1225	17.16
293.15 K, x1 = 0.7	–	1225.6	20.39
293.15 K, x1 = 0.8	1.44	1226.5	24.65
293.15 K, x1 = 1	3.71	1228	40.29
298.15 K, x1 = 0.1	0.449	–	–
298.15 K, x1 = 0.22	0.745	–	–
298.15 K, x1 = 0.3	1.3	–	–
298.15 K, x1 = 0.5	2.13	–	–
298.15 K, x1 = 0.8	2.49	–	–
298.15 K, x1 = 1	4.22	–	–
303.15 K, x1 = 0.1	0.497	1200.9	3.6
303.15 K, x1 = 0.22	0.832	1206.4	4.5
303.15 K, x1 = 0.3	1.44	1209.5	5.71
303.15 K, x1 = 0.4	–	1212.6	7.73
303.15 K, x1 = 0.5	2.37	1214.9	9.78
303.15 K, x1 = 0.62	–	1216.9	12.55
303.15 K, x1 = 0.7	–	1218	15.17
303.15 K, x1 = 0.8	2.8	1218.9	18.53
303.15 K, x1 = 1	–	1220.4	28.81
304.15 K, x1 = 1	4.94	–	–
308.15 K, x1 = 0.1	0.546	–	–
308.15 K, x1 = 0.22	0.93	–	–
308.15 K, x1 = 0.3	1.59	–	–
308.15 K, x1 = 0.5	2.62	–	–
308.15 K, x1 = 0.8	3.13	–	–
313.15 K, x1 = 0.1	0.597	1191	2.66
313.15 K, x1 = 0.22	1.03	1197	3.64
313.15 K, x1 = 0.3	1.74	1200.6	4.57
313.15 K, x1 = 0.4	–	1204.1	6.07
313.15 K, x1 = 0.5	2.88	1206.7	7.59
313.15 K, x1 = 0.62	–	1209.1	9.6
313.15 K, x1 = 0.7	–	1210.4	11.72
313.15 K, x1 = 0.8	3.46	1212	14.49
313.15 K, x1 = 1	5.97	1213.1	20.91
318.15 K, x1 = 0.1	0.65	–	–
318.15 K, x1 = 0.22	1.13	–	–
318.15 K, x1 = 0.3	1.9	–	–
318.15 K, x1 = 0.5	3.15	–	–
318.15 K, x1 = 0.8	3.81	–	–
323.15 K, x1 = 0.1	0.704	1181.1	2.24
323.15 K, x1 = 0.22	1.23	1187.7	3.04
323.15 K, x1 = 0.3	2.06	1191.7	3.75
323.15 K, x1 = 0.4	–	1195.7	4.91
323.15 K, x1 = 0.5	3.43	1198.6	6.07
323.15 K, x1 = 0.62	–	1201.4	7.57
323.15 K, x1 = 0.7	–	1203	9.33
323.15 K, x1 = 0.8	4.18	1204	10.97
323.15 K, x1 = 1	7.17	1205.5	16.7
328.15 K, x1 = 0.1	0.759	–	–
328.15 K, x1 = 0.22	1.33	–	–
328.15 K, x1 = 0.3	2.22	–	–
328.15 K, x1 = 0.5	3.72	–	–
328.15 K, x1 = 0.8	4.57	–	–
333.15 K, x1 = 0.1	0.816	1171.2	1.91
333.15 K, x1 = 0.22	1.44	1178.5	2.57
333.15 K, x1 = 0.3	2.39	1182.9	3.14
333.15 K, x1 = 0.4	–	1187.4	4.06
333.15 K, x1 = 0.5	4.01	1190.6	4.97
333.15 K, x1 = 0.62	–	1193.8	6.15
333.15 K, x1 = 0.7	–	1195.6	7.61
333.15 K, x1 = 0.8	4.97	1196.5	8.83
333.15 K, x1 = 1	8.51	1197.2	13.3
338.15 K, x1 = 0.1	0.874	–	–
338.15 K, x1 = 0.22	1.54	–	–
338.15 K, x1 = 0.3	2.56	–	–
338.15 K, x1 = 0.5	4.32	–	–
338.15 K, x1 = 0.8	5.38	–	–
343.15 K, x1 = 0.1	0.932	1161.4	1.65
343.15 K, x1 = 0.22	1.66	1169.3	2.2
343.15 K, x1 = 0.3	2.73	1174.2	2.68
343.15 K, x1 = 0.4	–	1179.1	3.44
343.15 K, x1 = 0.5	4.62	1182.7	4.16
343.15 K, x1 = 0.62	–	1186.2	5.19
343.15 K, x1 = 0.7	–	1188	6.42
343.15 K, x1 = 0.8	5.8	1189.5	7.91
343.15 K, x1 = 1	–	1190.2	11.17
344.95 K, x1 = 1	9.3	–	–
348.15 K, x1 = 0.1	0.992	–	–
348.15 K, x1 = 0.22	1.77	–	–
348.15 K, x1 = 0.3	2.91	–	–
348.15 K, x1 = 0.5	4.93	–	–
348.15 K, x1 = 0.8	6.24	–	–
353.15 K, x1 = 0.1	1.05	1151.6	1.45
353.15 K, x1 = 0.22	1.88	1160.1	1.91
353.15 K, x1 = 0.3	3.09	1165.4	2.32
353.15 K, x1 = 0.4	–	1170.8	2.95
353.15 K, x1 = 0.5	5.24	1174.9	3.54
353.15 K, x1 = 0.62	–	1178.7	4.3
353.15 K, x1 = 0.7	–	1180	5.2
353.15 K, x1 = 0.8	6.68	1181.5	6.35
353.15 K, x1 = 1	–	1182	9.28
353.65 K, x1 = 1	10.5	–	–
358.15 K, x1 = 0.1	1.11	–	–
358.15 K, x1 = 0.22	1.99	–	–
358.15 K, x1 = 0.3	3.19	–	–
358.15 K, x1 = 0.5	5.55	–	–
358.15 K, x1 = 0.8	7.12	–	–
362.15 K, x1 = 0.3	3.35	–	–
363.15 K, x1 = 0.5	5.83	–	–
363.15 K, x1 = 0.8	7.57	–	–
